Measurements taken from ChEMBL document CHEMBL1156460, “Lumazine synthase from Candida albicans as an anti-fungal target enzyme: structural and biochemical basis for drug design” (J Biol Chem, 2007).

System: Candida albicans
Assay: Binding affinity to Candida albicans lumazine synthase

Ka [M⁻¹]	SMILES
3.53e+06	O=c1[nH]c(=O)c2c([nH]1)n(C[C@H](O)[C@H](O)[C@H](O)CO)c(=O)n2CCCOP(=O)(O)O
6.61e+06	O=c1[nH]c(Cl)c(CCCCOP(=O)(O)O)c(=O)[nH]1
1.63e+06	O=c1[nH]c(=O)c2c([nH]1)n(C[C@H](O)[C@H](O)[C@H](O)CO)c(=O)c(=O)n2CCCCOP(=O)(O)O
758000	O=c1[nH]c(=O)c2[nH]c(=O)n(C[C@H](O)[C@H](O)[C@H](O)CO)c2[nH]1
